PMC8345109, “Optimization of New Catalytic Topoisomerase II Inhibitors as an Anti-Cancer Therapy” (Cancers, 2021)
≈ marks a conversion by molar mass, not a printed value. Read-outs that look alike come from different tables or passages of the source.

How the values were obtained:
human TOP2A(431-1193) [1] = target: T1, human TOP2A(431-1193) (Homo sapiens, UniProt P11388); experiment: Microscale thermophoresis (MST) binding assay; conditions: 5 nM NT647-labelled TOP2A(431-1193)
T1 construct: 6xHis (N); made in house; host or cells: E. coli BL21 (DE3)
T1 sequence (P11388 431-1193): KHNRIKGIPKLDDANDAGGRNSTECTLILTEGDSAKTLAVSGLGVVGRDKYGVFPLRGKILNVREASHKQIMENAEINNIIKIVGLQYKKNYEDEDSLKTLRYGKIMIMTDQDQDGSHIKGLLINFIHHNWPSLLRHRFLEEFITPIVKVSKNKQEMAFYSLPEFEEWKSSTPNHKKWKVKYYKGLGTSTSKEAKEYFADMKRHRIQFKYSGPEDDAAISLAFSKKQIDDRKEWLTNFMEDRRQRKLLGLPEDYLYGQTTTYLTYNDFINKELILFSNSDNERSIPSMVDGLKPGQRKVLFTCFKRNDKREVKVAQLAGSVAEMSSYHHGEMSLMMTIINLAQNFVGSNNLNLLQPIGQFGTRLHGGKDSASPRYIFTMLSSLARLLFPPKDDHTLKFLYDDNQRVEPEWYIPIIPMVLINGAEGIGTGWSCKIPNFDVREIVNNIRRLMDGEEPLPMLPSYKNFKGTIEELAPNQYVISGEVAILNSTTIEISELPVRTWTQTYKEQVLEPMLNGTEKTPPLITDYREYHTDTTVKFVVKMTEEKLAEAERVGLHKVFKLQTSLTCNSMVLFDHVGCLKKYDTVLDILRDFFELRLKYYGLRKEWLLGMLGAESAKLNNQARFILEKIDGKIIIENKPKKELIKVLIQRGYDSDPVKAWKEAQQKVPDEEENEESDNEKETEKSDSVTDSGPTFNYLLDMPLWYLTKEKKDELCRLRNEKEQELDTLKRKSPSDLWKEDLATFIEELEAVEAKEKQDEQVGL
Method: It was transformed into BL21 (DE3) E. coli cells and induced by 0.5 mM IPTG for 16 h at 16 °C. Cells were lysed by sonication and protein purification was by chromatography with the Ni-NTA beads (Invitrogen), followed by a size exclusion chromatography (Superdex 200). […] A serial dilution of the inhibitors was prepared with 100% DMSO and subsequently mixed with the labeled fluorescent protein in the assay buffer (20 mM Tris pH 8.0, 100 mM NaCl, 0.1% NP40, 0.2 mM TCEP, and 0.1 mM PMSF) at the final concentrations of 0.015–500 uM. The final concentration of the protein was 5 nM. The labeled protein and small molecules mix were allowed to incubate in the dark at room temperature for 5 min before filling the capillaries. MST assays were performed with 5–20% LED/excitation power and medium MST power using premium capillaries for Monolith NT.115. The data for the estimation of Kd were analyzed using MO Affinity Analysis software from Nanotemper.
(§1) (A) Ethidium bromide displacement assays were performed by mixing 100 µg/mL salmon sperm DNA with −/+2 µg/mL ethidium bromide and the indicated compounds. Reactions were subjected to fluorescence emission of 590 nm and excitation of 535 nm. Obtained signals were detected by using the Multimode Microplate Reader (Infinite F500). […] Reactions were subjected to 5–20% LED/excitation power and medium MST power using premium capillaries. Obtained signals were detected by using the Monolith NT.115 system. The change in thermophoresis is expressed as the change in the normalized fluorescence (ΔFnorm). MST assays were repeated with two control compounds, enzalutamide (Enza) and merbarone.

salmon sperm DNA = experiment: Ethidium bromide displacement assay; format: binding; conditions: 100 µg/mL salmon sperm DNA, 2 µg/mL ethidium bromide
Method: as §1

human TOP2A(431-1193) [2] = target: T1, human TOP2A(431-1193); experiment: EMSA, TOP2A(431-1193) with 5ZRF DNA oligo; format: binding; conditions: 2 uM protein, 300 nM oligo
human TOP2A(431-1193) [3] = target: T1, human TOP2A(431-1193); experiment: Fluorescence polarization (FP) assay of TOP2A-DNA interaction; format: binding; conditions: 500 nM protein, 0.01-200 µM compound
Method: Fluorescent polarization assay was performed in Corning® Low Volume 384-well Black Flat Bottom microplate. […] Triplicate reactions were transferred onto the microplate and incubated at room temperature for 20 min. Fluorescence polarization (FP) measurements were taken by Tecan Infinite F500 with the excitation wavelength of 485 nm and emission wavelength of 535 nm.
(§2) (A) EMSA was performed by purified full-length TOP2A or TOP2B proteins at a contraction of 300 nM with IRDay700 labeled 5ZRF DNA oligo at a concentration of 100 nM in the presence of −/+200 µM of ICRF193, T60, T637, and T638. […] Reactions were subjected to fluorescence […], which were detected by using the Multimode Microplate Reader (Infinite F500). (D) DNA cleavage assays were performed using full-length human TOP2A and TOP2B incubated with the supercoiled pHOT plasmid in the presence of 200 µM of etoposide plus 1, 100, or 200 µM of ICRF193, T60, T637, and T638. Reactions were separated on a DNA gel with ethidium bromide. All experiments were repeated three times, and one representative image was shown. Note: N, nicked DNA; L, linear DNA; and SC, supercoiled DNA.

K562 cells [4] = experiment: Cytotoxicity by LDH release; conditions: for Cytotoxicity (LDH release), in words: K562, 0-20 uM, 48 h
Method: (§4) (A) K562 cells were treated with 0, 0.5, 1, 5, 10, 15, and 20 uM of T60 or 0, 0.5, 1, 5, 10, 15, 20, 50, and 100 uM of T637 and T638 for 24, 48, or 72 h. […] (B) NCI-H446 small cell lung cancer line and Hela cervical cancer line were treated with 0, 0.5, 1, 5, 10, 15, and 20 uM of T60 or 0, 0.5, 1, 5, 10, 15, 20, 50, and 100 uM of T637 and T638 for five days. Cell growth rates were measured by using Incucyte^TM. (C) K562 cells were treated with 0, 5, 10, 15, and 20 uM of T60, T637, or T638 for 48 h. Cytotoxicity was evaluated by measuring the LDH levels from the culture media. (D) K562 cells were treated with the vehicle or 10–20 µM of etoposide, T60, T637, or T638 for 4 h. Immunoblotting measured p-H2AXγ levels in cells with vinculin as a loading control.

Solubility by LC/MS/MS = format: physicochemical; conditions: for solubility at 1 h: kinetic from dmso stock
Method: Stock solutions of the tested compounds at 50 mM in dimethyl sulfoxide (DMSO) were diluted 50-fold in methanol (MeOH), Roswell Park Memorial Institute-1640 (RPMI1640), plus 5% charcoal-stripped serum (CSS) from Sigma-Aldrich (media) and phosphate-buffered saline (PBS), and vortexed at room temperature for 1 h at 800 rpm. The resulting solutions were centrifuged at 20,000× g for 5 min, and the saturated supernatants were diluted 40-fold in acetonitrile. The resultant solutions were subjected to LC/MS/MS to determine the solubility.

TOP2A [5] = target: T2, TOP2A (Homo sapiens, UniProt P11388); experiment: K-DNA decatenation assay, TOP2A; format: biochemical; conditions: 0.01-200 uM, three biological repeats
T2 sequence (P11388 whole entry): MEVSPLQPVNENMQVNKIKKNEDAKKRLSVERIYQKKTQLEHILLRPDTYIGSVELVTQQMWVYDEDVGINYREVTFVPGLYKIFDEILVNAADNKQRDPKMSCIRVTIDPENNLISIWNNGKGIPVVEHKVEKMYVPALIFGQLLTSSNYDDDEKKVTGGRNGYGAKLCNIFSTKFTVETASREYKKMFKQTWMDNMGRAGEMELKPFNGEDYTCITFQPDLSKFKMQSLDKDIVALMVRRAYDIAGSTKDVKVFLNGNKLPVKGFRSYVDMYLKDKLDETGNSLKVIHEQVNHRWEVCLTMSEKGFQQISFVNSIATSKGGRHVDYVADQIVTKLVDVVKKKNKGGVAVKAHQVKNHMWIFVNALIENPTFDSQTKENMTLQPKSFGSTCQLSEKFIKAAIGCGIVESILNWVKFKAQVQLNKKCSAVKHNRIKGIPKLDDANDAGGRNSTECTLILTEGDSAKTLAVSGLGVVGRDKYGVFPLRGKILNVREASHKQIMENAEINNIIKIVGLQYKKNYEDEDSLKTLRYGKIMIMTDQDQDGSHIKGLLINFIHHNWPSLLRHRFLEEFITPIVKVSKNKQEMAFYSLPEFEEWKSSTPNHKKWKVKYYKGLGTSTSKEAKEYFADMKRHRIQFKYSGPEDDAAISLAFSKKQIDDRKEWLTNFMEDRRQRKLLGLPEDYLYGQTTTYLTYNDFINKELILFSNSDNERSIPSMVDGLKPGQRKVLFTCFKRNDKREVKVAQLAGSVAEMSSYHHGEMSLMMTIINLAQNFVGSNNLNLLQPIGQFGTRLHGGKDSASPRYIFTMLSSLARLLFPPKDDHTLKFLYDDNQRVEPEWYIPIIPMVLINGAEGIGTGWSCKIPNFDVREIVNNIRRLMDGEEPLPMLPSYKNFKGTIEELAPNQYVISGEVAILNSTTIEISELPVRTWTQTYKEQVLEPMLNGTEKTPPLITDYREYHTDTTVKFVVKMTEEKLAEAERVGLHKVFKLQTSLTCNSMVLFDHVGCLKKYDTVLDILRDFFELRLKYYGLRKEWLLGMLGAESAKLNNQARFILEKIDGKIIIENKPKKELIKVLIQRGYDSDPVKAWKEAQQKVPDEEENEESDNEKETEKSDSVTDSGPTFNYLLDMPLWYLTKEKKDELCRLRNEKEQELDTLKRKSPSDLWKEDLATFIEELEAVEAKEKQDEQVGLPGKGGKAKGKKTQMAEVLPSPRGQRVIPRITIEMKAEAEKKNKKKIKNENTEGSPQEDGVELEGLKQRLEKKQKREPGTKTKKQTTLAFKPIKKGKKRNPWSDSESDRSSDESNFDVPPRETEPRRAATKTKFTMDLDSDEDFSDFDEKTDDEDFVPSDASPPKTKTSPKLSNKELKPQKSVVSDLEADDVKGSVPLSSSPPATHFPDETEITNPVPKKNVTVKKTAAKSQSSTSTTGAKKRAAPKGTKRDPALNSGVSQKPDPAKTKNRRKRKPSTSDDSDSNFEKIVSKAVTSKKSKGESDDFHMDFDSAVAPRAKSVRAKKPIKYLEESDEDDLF
Method: (§3) Figure 2 T637 and T638 are TOP2A inhibitors. (A) K-DNA decatenation assays and (B) supercoiled plasmid DNA relaxation assays are used to measure TOP2A enzyme activity in the presence of 0.01–200 uM T637 or T638. Three biological repeats were performed with each concentration of the compounds, and the densitometry of the D-DNA bands from (A) and the SC bands from (B) was used to establish an inhibition curve for IC50 calculation.

TOP2A [6] = target: T2, TOP2A; experiment: Supercoiled plasmid DNA relaxation assay, TOP2A; format: biochemical; conditions: 0.01-200 uM, three biological repeats
Method: as §3

TOP2B [7] = target: T3, TOP2B (Homo sapiens, UniProt Q02880); experiment: K-DNA decatenation assay, TOP2B; format: biochemical; conditions: 0.01-200 uM, three biological repeats
T3 sequence (Q02880 whole entry): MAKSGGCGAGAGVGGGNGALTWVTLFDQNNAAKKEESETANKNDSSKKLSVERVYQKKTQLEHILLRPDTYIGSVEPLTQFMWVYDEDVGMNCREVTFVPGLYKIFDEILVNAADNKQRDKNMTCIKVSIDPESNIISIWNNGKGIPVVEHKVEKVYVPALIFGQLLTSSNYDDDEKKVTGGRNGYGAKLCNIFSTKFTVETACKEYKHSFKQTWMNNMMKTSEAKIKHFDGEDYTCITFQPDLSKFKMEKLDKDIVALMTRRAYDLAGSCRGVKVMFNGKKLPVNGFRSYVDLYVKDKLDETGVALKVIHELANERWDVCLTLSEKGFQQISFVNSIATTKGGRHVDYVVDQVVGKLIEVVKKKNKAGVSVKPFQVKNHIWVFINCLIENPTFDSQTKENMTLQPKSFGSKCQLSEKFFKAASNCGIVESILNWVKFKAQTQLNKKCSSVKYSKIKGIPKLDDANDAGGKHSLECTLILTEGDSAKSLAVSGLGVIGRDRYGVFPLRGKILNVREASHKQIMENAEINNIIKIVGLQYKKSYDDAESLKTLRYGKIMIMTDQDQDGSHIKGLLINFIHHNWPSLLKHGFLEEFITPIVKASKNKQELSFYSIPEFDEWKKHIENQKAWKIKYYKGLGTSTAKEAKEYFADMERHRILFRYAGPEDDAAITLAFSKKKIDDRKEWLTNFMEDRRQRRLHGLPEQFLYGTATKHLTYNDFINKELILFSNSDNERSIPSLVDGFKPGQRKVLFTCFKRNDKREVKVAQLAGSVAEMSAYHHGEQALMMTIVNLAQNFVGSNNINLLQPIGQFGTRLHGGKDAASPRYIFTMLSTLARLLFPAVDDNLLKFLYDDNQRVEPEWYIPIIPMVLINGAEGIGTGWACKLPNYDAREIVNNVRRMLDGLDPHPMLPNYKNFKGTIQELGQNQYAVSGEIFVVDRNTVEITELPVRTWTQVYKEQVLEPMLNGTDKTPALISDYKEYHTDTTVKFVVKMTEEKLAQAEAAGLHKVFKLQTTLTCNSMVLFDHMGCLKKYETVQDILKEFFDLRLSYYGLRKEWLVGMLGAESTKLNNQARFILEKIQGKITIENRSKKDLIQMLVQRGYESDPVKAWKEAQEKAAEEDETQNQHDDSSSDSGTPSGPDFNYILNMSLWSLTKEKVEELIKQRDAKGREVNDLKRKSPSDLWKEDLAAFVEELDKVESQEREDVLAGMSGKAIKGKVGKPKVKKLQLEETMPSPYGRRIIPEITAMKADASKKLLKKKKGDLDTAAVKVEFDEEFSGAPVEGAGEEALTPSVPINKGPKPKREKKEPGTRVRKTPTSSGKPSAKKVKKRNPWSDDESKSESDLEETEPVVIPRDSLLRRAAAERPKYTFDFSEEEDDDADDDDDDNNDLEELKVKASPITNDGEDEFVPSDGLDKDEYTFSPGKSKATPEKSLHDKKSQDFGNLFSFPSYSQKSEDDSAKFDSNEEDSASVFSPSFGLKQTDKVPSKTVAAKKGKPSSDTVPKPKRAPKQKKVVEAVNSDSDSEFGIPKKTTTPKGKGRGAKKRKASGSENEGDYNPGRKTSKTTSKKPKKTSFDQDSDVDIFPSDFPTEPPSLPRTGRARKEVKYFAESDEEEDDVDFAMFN
Method: as §3, with “Figure 3” for “Figure 2”, “are TOP2B” for “are TOP2A”, “measure TOP2B” for “measure TOP2A enzyme”

TOP2B [8] = target: T3, TOP2B; experiment: Supercoiled plasmid DNA relaxation assay, TOP2B; format: biochemical; conditions: 0.01-200 uM, three biological repeats
Method: as §3, with “Figure 3” for “Figure 2”, “are TOP2B” for “are TOP2A”, “measure TOP2B” for “measure TOP2A enzyme”

[9] = Crystal formation (precipitation) in cell cultures; format: physicochemical
Method: Both T637 and T638 have improved solubility in aqueous solution and culture media compared to T60 (Figure 1). […] When cells are growing in the culture media and treated with T60 at concentrations ≥50 uM for two days, T60 will form crystals, likely due to the altered pH values by the cells that induce T60 precipitation. […] These improvements in solubility allow higher doses of compounds to be used to treat cancer cells to reach maximum tumor suppression.

in vitro = conditions: mouse, liver microsomes, pH 7.4
Method: The reaction was initiated by adding NADPH, followed by incubation at 37 °C. […] The samples were then vortexed and centrifuged at 16,000 rpm for 10 min at 4 °C. The supernatants were collected and analyzed by LC/MS/MS to determine the remaining percentage and the half-life (t1/2) by integrating compound peaks and fitting the resulting AUC values and time points to a one-phase decay equation.

K562 leukemia cells = experiment: K562 cell proliferation (MTS assay); conditions: for inhibition at 20 µM: Homo sapiens, read-out: Maximum cell proliferation inhibition; for Maximum cell proliferation inhibition: K562, up to 100 uM
Method: as §4

full-length TOP2A [10] = target: T4, full-length TOP2A (Homo sapiens, UniProt P11388); experiment: EMSA, full-length TOP2A with 5ZRF DNA oligo; format: binding; set-up: EMSA was performed by purified full-length TOP2A or TOP2B proteins; conditions: 200 µM compound, 300 nM protein, 100 nM oligo
T4 sequence (P11388 whole entry): as the sequence (P11388 whole entry) above
Method: as §2

full-length TOP2B [11] = target: T5, full-length TOP2B (Homo sapiens, UniProt Q02880); experiment: EMSA, full-length TOP2B with 5ZRF DNA oligo; format: binding; set-up: EMSA was performed by purified full-length TOP2A or TOP2B proteins; conditions: 200 µM compound, 300 nM protein, 100 nM oligo
T5 sequence (Q02880 whole entry): as the sequence (Q02880 whole entry) above
Method: as §2

K562 cells [12] = experiment: Immunoblotting of p-H2AXγ (DNA damage); conditions: K562, 10-20 µM, 4 h
Method: as §4

full-length TOP2A [13] = target: T4, full-length TOP2A; experiment: DNA cleavage assay, TOP2A; format: biochemical; set-up: DNA cleavage assays were performed using full-length human TOP2A and TOP2B; conditions: 200 µM etoposide plus 1, 100 or 200 µM compound, pHOT plasmid
Method: as §2

full-length TOP2B [14] = target: T5, full-length TOP2B; experiment: DNA cleavage assay, TOP2B; format: biochemical; set-up: DNA cleavage assays were performed using full-length human TOP2A and TOP2B; conditions: 200 µM etoposide plus 1, 100 or 200 µM compound, pHOT plasmid
Method: as §2

TOP2A(431-1193) = TOP2A(431-1193) (Homo sapiens, UniProt P11388 431-1193); experiment: fluorescence polarization; merbarone 0.01-200 uM; 3 mM Mg2+; FP: 20 mM HEPES-NaOH pH 7.4, 2 mM DTT, 3 mM MgCl2, 0.05% NP-40, protease inhibitors, room temperature 20 min; EMSA buffer not in material; conditions: protein: recombinant; tags: N-terminal 6xHis (pET28a); label: 3' 6-FAM (Results text says NT474 dye); blunt; self-complementary 20-mer, 2 copies
Chain of TOP2A(431-1193) (P11388 431-1193): as the sequence (P11388 431-1193) above

[15] = RPMI1640 plus 5% charcoal-stripped serum, plasma or biological fluid, cell culture media with serum, read-out: Solubility Media/FBS
[16] = methanol, organic solvent or mixture, methanol, read-out: Solubility Methanol
[17] = phosphate-buffered saline, aqueous buffer, PBS, read-out: Solubility PBS

## CNC(=O)c1ccc(N2C(=S)N(c3ccc(C#N)c(C(F)(F)F)c3)C(=O)C2(C)C)cc1F [enzalutamide]
Human TOP2A(431-1193) [1]
  Binding to TOP2A(431-1193) by MST (change of thermophoresis), in words: no alteration of thermophoresis

## COc1cc(NS(C)(=O)=O)ccc1Nc1c2ccccc2nc2ccccc12 [m-AMSA, amsacrine, reference compound]
Salmon sperm DNA
  Fluorescence induced by the ethidium bromide/DNA complex reduced by increasing doses (DNA intercalation): reduced

## O=C1NC(=S)NC(=O)C1C(=O)Nc1ccccc1 [merbarone, reference compound]
Human TOP2A(431-1193) [1]
  Binding to TOP2A(431-1193) by MST (change of thermophoresis), in words: no interaction
Human TOP2A(431-1193) [2]
  Inhibition of TOP2A(431-1193)-DNA interaction (EMSA): did not affect the formation of the TOP2–DNA complex
Human TOP2A(431-1193) [3]
  Effect on TOP2A-DNA interaction (FP): did not affect TOP2A–DNA interaction

## COc1cc([C@@H]2c3cc4c(cc3[C@@H](O[C@@H]3O[C@@H]5CO[C@@H](C)O[C@H]5[C@H](O)[C@H]3O)[C@H]3COC(=O)[C@H]23)OCO4)cc(OC)c1O [etoposide, reference compound]
K562 cells [4]; K562, 20 uM, two days
  Cytotoxicity (LDH release): up to 70%

## O=C(Nc1ccc(Nc2ccccc2)cc1)c1ccc[nH]c1=S [T60]
Solubility by LC/MS/MS; [15]
  solubility at 1 h: 206 µM
Solubility by LC/MS/MS; cell culture media with serum
  Solubility Media/FBS: ~ 200 uM
Solubility by LC/MS/MS; [16]
  solubility at 1 h: > 1000 µM
Solubility by LC/MS/MS; [17]
  solubility at 1 h: 5.8 µM (≈ 1.86 µg/mL)
TOP2A [5]
  IC50: ~0.3 µM
TOP2A [6]
  IC50: 4.7 µM
TOP2B [7]
  IC50: ~3.1 µM
TOP2B [8]
  IC50: ~8.9 µM
Salmon sperm DNA
  Fluorescence induced by the ethidium bromide/DNA complex reduced by increasing doses (DNA intercalation): not
Human TOP2A(431-1193) [2]
  Inhibition of TOP2A(431-1193)-DNA interaction (EMSA): inhibited TOP2A–DNA interaction dose-dependently
Human TOP2A(431-1193) [3]
  Effect on TOP2A-DNA interaction (FP): reduced the TOP2A–DNA interaction in a dose-dependent manner
[9]; cells treated for two days
  Concentration at which the compound forms crystals in culture media with growing cells: ≥ 50 µM
In vitro
  half-life at 1 uM: 51 min
  microsomal CLint at 1 uM: 46 µL/min/mg
K562 cells [4]
  Cytotoxicity (LDH release), in words: not observed
K562 leukemia cells; K562, 24 h
  inhibition at 20 µM: ~38%
K562 leukemia cells; K562, 48 h
  inhibition at 20 µM: 71%
K562 leukemia cells; K562, 72 h
  inhibition at 20 µM: 86%
full-length TOP2A [10]
  Block of TOP2A-DNA oligo complex formation (EMSA): block
full-length TOP2B [11]
  Block of TOP2B-DNA oligo complex formation (EMSA): block

## CC(=O)Nc1cc(Nc2ccccc2)ccc1NC(=O)c1ccc[nH]c1=S [T637]
Solubility by LC/MS/MS; [15]
  solubility at 1 h: 707 µM
Solubility by LC/MS/MS; [16]
  solubility at 1 h: > 1000 µM
Solubility by LC/MS/MS; [17]
  solubility at 1 h: 20 µM (≈ 7.57 µg/mL)
TOP2A [5]
  IC50: ~1.4 µM
TOP2A [6]
  IC50: 16.8 µM
TOP2B [7]
  IC50: ~8.9 µM
TOP2B [8]
  IC50: ~18.6 µM
Salmon sperm DNA
  Fluorescence induced by the ethidium bromide/DNA complex reduced by increasing doses (DNA intercalation): not
Human TOP2A(431-1193) [2]
  Inhibition of TOP2A(431-1193)-DNA interaction (EMSA): inhibited TOP2A–DNA interaction dose-dependently
Human TOP2A(431-1193) [3]
  Effect on TOP2A-DNA interaction (FP): reduced the TOP2A–DNA interaction in a dose-dependent manner
[9]; up to 100 uM
  Crystal formation in cell cultures, in words: no crystal formation
In vitro
  half-life at 1 uM: 20 min
  microsomal CLint at 1 uM: 116 µL/min/mg
K562 cells [4]
  Cytotoxicity (LDH release), in words: not observed
K562 leukemia cells; 48 h
  Maximum cell proliferation inhibition: 100%
K562 leukemia cells; 72 h
  Maximum cell proliferation inhibition: 100%
K562 cells [12]
  Intracellular DNA damage (phospho-H2AXγ protein levels): do not cause intracellular DNA damage
full-length TOP2A [10]
  Block of TOP2A-DNA oligo complex formation (EMSA): block
full-length TOP2B [11]
  Block of TOP2B-DNA oligo complex formation (EMSA): block
full-length TOP2A [13]
  Prevention of etoposide-induced DNA cleavage, TOP2A: did prevent etoposide-induced DNA cleavage
full-length TOP2B [14]
  Prevention of etoposide-induced DNA cleavage, TOP2B: did prevent etoposide-induced DNA cleavage

## ICRF193 [reference compound]
full-length TOP2A [10]
  Block of TOP2A-DNA oligo complex formation (EMSA): not
full-length TOP2A [13]
  Prevention of etoposide-induced DNA cleavage, TOP2A: did not prevent etoposide-induced DNA cleavage
full-length TOP2B [14]
  Prevention of etoposide-induced DNA cleavage, TOP2B: did not prevent etoposide-induced DNA cleavage

B1: 5ZRF DNA oligo (FAM) (dsDNA)
DNA 1: AGCCGAGCTGCAGCTCGGCT
DNA 2: AGCCGAGCTGCAGCTCGGCT
TOP2A(431-1193)
  binding result: binds
